Consider 41 compounds from patent publication US5428059A, “Benzopyran derivatives and an anti-allergic agent possessing the same as the active ingredient” (Dainippon Ink & Chemicals, Inc., priority 1991, dated 1995).

The assay relates to Hartley-type male guinea pigs. In words: Guinea Pig Homogeneous Skin Passive Anaphylaxis Assay (PCA reaction). It counts as in vivo, guinea pig (Hartley-type). Particulars: Cavia porcellus, 10 mg/kg oral, 48 h after sensitization, read-out: Allergic reaction inhibitory index (%). The method, then: In order to confirm the anti-allergic action of the compounds according to the present invention, as an anti-allergic action confirmation assay, the widely used Guinea Pig Homogeneous Skin Passive Anaphylaxis Assay (PCA Reaction Assay; Passive Cutaneous Anaphylaxis Reaction Assay) was carried out. The assay method used will be explained in the following.
Assay method: Hartley-type male guinea pigs (body weight: 250~300 g) were sensitized by the following procedure; a mixture of 2 μg of egg albumin (OVA) and 5 μg of aluminium hydroxide gel was administered intraperitoneally 3 times every 2 weeks, and the anti-OVA blood serum was manufactured.
The anti-blood serum obtained was then diluted 120 times using physiological saline solution, and then to groups each containing 6 shaved guinea pigs, was injected at a quantity of 0.05 ml respectively, into two positions in the back portion, inside the skin of each animal.
After the 48th hour of sensitization, 10 mg/kg of the test substance to be tested was orally administered, following which a mixture of 2 mg OVA and 5 mg of Evans Blue was administered by intraveneous injection into the hind leg, triggering the anaphylaxis reaction. As the positive control, Tranilast, a well known anti-allergic agent, was used, and in the same manner as the substances to be tested, 100 mg/kg of it was orally administered after the 48th hour of sensitization.
30 minutes after triggering the reaction, the animals were bled to death under ether anesthesia, and their back portion skins were peeled off. The long and short diameters of pigment leakage spots on the interior surface of the skins were measured, and the product of these (mm^2) were entered into formula 1 as "pigment leakage amount", from which the allergic reaction inhibitory index wins calculated. [formula]
I: Allergic reaction inhibitory index (%)
A: Pigment leakage amount of solvent control group
B: Pigment leakage amount of test substance group
C: Pigment leakage amount of […]

SMILES strings stand for the structures.

Consider `COc1c(OC(C)C)c2ccc(O)cc2oc1=O` [Compound 18, 3-(methoxy)-4-(isopropoxy)-7-hydroxy-2H-1-benzopyran-2-one], for which the inhibition in vivo at 10 mg/kg stood at 30%.
With `O=C(Oc1c(O)c2cc(O)ccc2oc1=O)c1ccccc1` [Compound 262, 3-(benzoyloxy)-4,6-(dihydroxy)-2H-1-benzopyran-2-one], the inhibition in vivo at 10 mg/kg came out at 30%.
As to `CCCCCCCCCCOc1cccc2c(O)c(OC(=O)c3ccccc3)c(=O)oc12` [Compound 143, 3-(benzoyloxy)-4-hydroxy-8-(decyloxy)-2H-1-benzopyran-2-one], the inhibition in vivo at 10 mg/kg was determined as 30%.
For `CC(C)=CCC/C(C)=C/COc1cccc2c(O)c(OC(=O)c3ccccc3)c(=O)oc12` [Compound 158, 3-(benzoyloxy)-4-hydroxy-8-(geranyloxy)-2H-1-benzopyran-2-one], the inhibition in vivo at 10 mg/kg is 30%.
As for `CC(C)Oc1cccc2c(O)c(O)c(=O)oc12` [Compound 130, 3,4-(dihydroxy)-8-(isopropoxy)-2H-1-benzopyran-2-one], the inhibition in vivo at 10 mg/kg was 39%.
Regarding `CCCCCCCCCCOc1c(OC(C)=O)c(=O)oc2c(OC)cccc12` [Compound 118, 3-(acetoxy)-4-(decyloxy)-8-(methoxy)-2H-1-benzopyran-2-one], the inhibition in vivo at 10 mg/kg was found to be 32%.
Next, `COc1c(OC(C)=O)c2ccc(OC/C=C(\C)CCC=C(C)C)cc2oc1=O` [Compound 82, 3-(methoxy)-4-(acetoxy)-7-(geranyloxy)-2H-1-benzopyran-2-one]: 30%; `CCCCCCCCCCOc1cccc2c(OC(=O)c3ccccc3)c(OC)c(=O)oc12` [Compound 150, 3-(methoxy)-4-(benzoyloxy)-8-(decyloxy)-2H-1-benzopyran-2-one]: 34%.
Consider `CC(=O)Oc1c(OC/C=C(\C)CCC=C(C)C)c(=O)oc2cc(O)ccc12` [Compound 21, 3-(geranyloxy)-4-(acetoxy)-7-hydroxy-2H-1-benzopyran-2-one], for which the inhibition in vivo at 10 mg/kg worked out at 33%.
Take `O=C(Oc1c(O)c2c(O)cccc2oc1=O)c1ccccc1` [Compound 176, 3-(benzoyloxy)-4,5-dihydroxy-2H-1-benzopyran-2-one]: the inhibition in vivo at 10 mg/kg came out at 34%.
As to `CCCCCCCCCCOc1ccc2c(OC(C)=O)c(OC(C)=O)c(=O)oc2c1` [Compound 61, 3,4-(diacetoxy)-7-(decyloxy)-2H-1-benzopyran-2-one], the inhibition in vivo at 10 mg/kg stood at 30%.
For `CCCCCCCCCCOc1ccc2c(OC(C)=O)c(O)c(=O)oc2c1` [Compound 60, 3-hydroxy-4-(acetoxy)-7-(decyloxy)-2H-1-benzopyran-2-one], the inhibition in vivo at 10 mg/kg worked out at 35%.
On to `CC(C)=CCC/C(C)=C/COc1c(O)c(=O)oc2c(OC/C=C(\C)CCC=C(C)C)cccc12` [Compound 168, 3-hydroxy-4,8-(digeranyloxy)-2H-1-benzopyran-2-one], for which the inhibition in vivo at 10 mg/kg was 34%.
Consider `CC(=O)Oc1c(OC(C)=O)c2cccc(OC(C)=O)c2oc1=O` [Compound 95, 3,4,8-(triacetoxy)-2H-1-benzopyran-2-one], for which the inhibition in vivo at 10 mg/kg came to 30%.
`COc1cccc2oc(=O)c(O)c(O)c12` [Compound 195, 3,4-(dihydroxy)-5-(methoxy)-2H-1-benzopyran-2-one]: the inhibition in vivo at 10 mg/kg was 55%.
The result for `CCCCCCCCCCOc1ccc2c(OC)c(OC/C=C(\C)CCC=C(C)C)c(=O)oc2c1` [Compound 71, 3-(geranyloxy)-4-(methoxy)-7-(decyloxy)-2H-1-benzopyran-2-one] reads 30%; that for `CCCCCCCCCCOc1ccc2c(OC)c(OC(=O)c3ccccc3)c(=O)oc2c1` [Compound 65, 3-(benzoyloxy)-4-(methoxy)-7-(decyloxy)-2H-1-benzopyran-2-one], 32%; that for `CC(C)Oc1cccc2oc(=O)c(O)c(OC(C)C)c12` [Compound 215, 3-hydroxy-4,5-(diisopropoxy)-2H-1-benzopyran-2-one], 34%.
With `COc1ccc2c(O)c(OC(=O)c3ccccc3)c(=O)oc2c1` [Compound 27, 3-(benzoyloxy)-4-hydroxy-7-(methoxy)-2H-1-benzopyran-2-one], the inhibition in vivo at 10 mg/kg turned out to be 40%.
Take `CC(C)=CCC/C(C)=C/COc1c(O)c2c(O)cccc2oc1=O` [Compound 187, 3-(geranyloxy)-4,5-(dihydroxy)-2H-1-benzopyran-2-one]: the inhibition in vivo at 10 mg/kg is 30%.
In the case of `CCCCCCCCCCOc1cccc2c(OCCCC)c(O)c(=O)oc12` [Compound 148, 3-hydroxy-4-(butoxy)-8-(decyloxy)-2H-1-benzopyran-2-one], the inhibition in vivo at 10 mg/kg is 31%.
Consider `CCCCCCCCCCOc1ccc2c(OC/C=C(\C)CCC=C(C)C)c(OC(=O)c3ccccc3)c(=O)oc2c1` [Compound 70, 3-(benzoyloxy)-4-(geranyloxy)-7-(decyloxy)-2H-1-benzopyran-2-one], for which the inhibition in vivo at 10 mg/kg was determined as 30%.
In the case of `CC(=O)Oc1c(O)c(=O)oc2c(O)cccc12` [Compound 94, 3,8-(dihydroxy)-4-(acetoxy)-2H-1-benzopyran-2-one], the inhibition in vivo at 10 mg/kg turned out to be 36%.
In the case of `O=C(Oc1c(O)c2ccc(O)cc2oc1=O)c1ccccc1` [Compound 4, 3-(benzoyloxy)-4,7-dihydroxy-2H-1-benzopyran-2-one], the inhibition in vivo at 10 mg/kg turned out to be 43%.
Turning to `COc1cccc2oc(=O)c(OC(C)C)c(O)c12` [Compound 198, 3-(isopropoxy)-4-hydroxy-5-(methoxy)-2H-1-benzopyran-2-one], the inhibition in vivo at 10 mg/kg amounted to 40%.
For `COc1c(O)c2ccc(OC/C=C(\C)CCC=C(C)C)cc2oc1=O` [Compound 78, 3-(methoxy)-4-hydroxy-7-(geranyloxy)-2H-1-benzopyran-2-one], the inhibition in vivo at 10 mg/kg is 37%.
Next, `CC(C)=CCC/C(C)=C/COc1ccc2c(OC(C)C)c(O)c(=O)oc2c1` [Compound 79, 3-hydroxy-4-(isopropoxy)-7-(geranyloxy)-2H-1-benzopyran-2-one]: 32%.
With `COc1c(OC/C=C(\C)CCC=C(C)C)c2cccc(OC)c2oc1=O` [Compound 125, 3,8-(dimethoxy)-4-(geranyloxy)-2H-1-benzopyran-2-one], the inhibition in vivo at 10 mg/kg came to 31%.
For `CCCCCCCCCCOc1ccc2c(O)c(OC/C=C(\C)CCC=C(C)C)c(=O)oc2c1` [Compound 67, 3-(geranyloxy)-4-hydroxy-7-(decyloxy)-2H-1-benzopyran-2-one], the inhibition in vivo at 10 mg/kg worked out at 39%.
Take `CCCCCCCCCCOc1c(O)c2cc(OC)ccc2oc1=O` [Compound 274]: the inhibition in vivo at 10 mg/kg is 35%.
On to `CCCCCCCCCCOc1c(OC(C)C)c2cccc(OC/C=C(\C)CCC=C(C)C)c2oc1=O` [Compound 164, 3-(decyloxy)-4-(isopropoxy)-8-(geranyloxy)-2H-1-benzopyran-2-one], for which the inhibition in vivo at 10 mg/kg is 33%.
Turning to `CCCCCCCCCCOc1ccc2c(OC)c(OC(C)C)c(=O)oc2c1` [Compound 66, 3-(isopropoxy)-4-(methoxy)-7-(decyloxy)-2H-1-benzopyran-2-one], the inhibition in vivo at 10 mg/kg was 30%.
`CC(C)Oc1ccc2c(OC(=O)c3ccccc3)c(OC(=O)c3ccccc3)c(=O)oc2c1` [Compound 47, 3,4-(dibenzoyloxy)-7-(isopropoxy)-2H-1-benzopyran-2-one]: the inhibition in vivo at 10 mg/kg turned out to be 31%.
For the compound `COc1ccc2c(OC(C)C)c(OC/C=C(\C)CCC=C(C)C)c(=O)oc2c1` [Compound 41, 3-(geranyloxy)-4-(isopropoxy)-7-(methoxy)-2H-1-benzopyran-2-one], the inhibition in vivo at 10 mg/kg came to 30%.
Regarding `CCCCCCCCCCOc1ccc2oc(=O)c(O)c(O)c2c1` [Compound 273, 3,4-(dihydroxy)-6-(decyloxy)-2H-1-benzopyran-2-one], the inhibition in vivo at 10 mg/kg was found to be 30%.
The result for `CC(C)Oc1c(O)c2ccc(O)cc2oc1=O` [Compound 15, 3-(isopropoxy)-4,7-(dihydroxy)-2H-1-benzopyran-2-one] reads 41%; that for `CCCCCCCCCCOc1c(OC)c(=O)oc2c(OC(C)C)cccc12` [Compound 135, 3-(methoxy)-4-(decyloxy)-8-(isopropoxy)-2H-1-benzoyran-2-one], 30%.
For the compound `CC(C)Oc1cccc2oc(=O)c(O)c(O)c12` [Compound 211, 3,4-(dihydroxy)-5-(isopropoxy)-2H-1-benzopyran-2-one], the inhibition in vivo at 10 mg/kg was determined as 52%.
Next, `COc1cccc2c(OC(=O)c3ccccc3)c(OC/C=C(\C)CCC=C(C)C)c(=O)oc12` [Compound 122, 3-(geranyloxy)-4-(benzoyloxy)-8-(methoxy)-2H-1-benzopyran-2-one]: 30%.
For `O=c1oc2c(O)cccc2c(O)c1O` [Compound 93, 3,4,8-trihydroxy-2H-1-benzopyran-2-one], the inhibition in vivo at 10 mg/kg came to 42%.
On to `CC(C)=CCC/C(C)=C/COc1c(O)c(=O)oc2c(O)cccc12` [Compound 103, 3,8-(dihydroxy)-4-(geranyloxy)-2H-1-benzopyran-2-one], for which the inhibition in vivo at 10 mg/kg was 30%.
